In US5266600A (priority 1992, dated 1993):
≈ marks a conversion by molar mass, not a printed value. Entries after “also recorded” stand apart in the source; their conditions may differ. Where two headings read alike, the source gives them in different places.

Columns and labels:
[1] = system: syncytium formation between HIV gp-120 expressing BSC-1 cells and HeLa-T4 (CD4) cells; test: Syncytium formation inhibition assay; assay type: cell-based; details: for Syncytium inhibitory activity ID50: 3-5 hours, 37° C.
[2] = system: HTLV-III (human T cell lymphotropic virus type III); test: Inhibition of HTLV-III infection in MT-4 cells (MTT); assay type: cell-based; details: for EC50: HTLV-III infected MT-4 cells, 5 days, MTT
Procedure: Human T cell lymphotropic virus type III (HTLV-III)/lymphadenopathy-associated virus is the etiologic agent of the acquired immune deficiency syndrome (AIDS) and AIDS-related complex. […] (Nakashima, H. et al., Antimicrobial Agents & Chemotherapy, 30, pp 933-937, 1986).
An HTLV type I-Carrying cell line, MT-4, was maintained in RPMI 1640 medium supplemented with 10% fetal calf serum, 100 IU of penicillin G per ml and 100 μg of streptomycin per ml at 37° C. in a CO2 incubator. HTLV-III8 was obtained from the supernatant of the Molt-4/HTLV-III8 culture. The titer of this virus preparation was 3.0×10^5 PFU/ml. MT-4 cells were infected with 0.01 MOI of HTLV-III8. The infected cells resuspended in fresh medium were mixed with a test sample solution (or medium itself for control) to give 2.5×10^4 cells in a 200 μl volume and incubated at 37° C. for 5 days. The surviving cells were measured by the MTT (3-(4,5-dimethylthiazol-2-yl)-2,5-diphenyltetrazolium bromide) method (R. Pauwels et al., J. Virol Methods, 20, pp 309-321, 1988). [formula]
Fifty percent effective concentration (EC50) was obtained from the inhibition rates.

MT-4 cells = test: Cytotoxicity in virus-uninfected MT-4 cells; assay type: cell-based; details: human, mt-4 cells
tubulin (3XMTP) [3] = test: Electron microscopic observation of microtubule assembly in 3XMTP; assay type: biochemical, calf; details: 100 μM
HIV-1 IIIb = test: Acute infection of HIV-1 IIIb in CEM-SS cells; assay type: cell-based
tubulin (3XMTP) [4] = test: Tubulin polymerization assay using thrice-cycled microtubule protein (3XMTP), spectrophotometric; assay type: biochemical, calf
Procedure: Briefly, tubulin was purified from calf brain extracts by three cycles of polymerization at 35° C. in the presence of 1 mM GTP+2.5 mM ATP, and depolymerization at 4° C. in PM buffer pH 6.6 (0.1 M PIPES, […]) containing various concentrations of glycerol as described previously (Williams R. C. and J. C. Lee 1982 Methods in Enzymology 85: pp. 376-385). The tubulin polymerization assay was carried out using 3XMTP in PM buffer containing 0.4 M of glycerol in the presence of test-compound. The polymerization was quantitated by Shimadzu spectrophotometer (Model No. UV 2100U) at 350 nm. Effect of compound on the kinetics of tubulin polymerization was followed for 20 minutes using taxol as a positive control and DMSO as a negative control. Compound in PM buffer +0.4 M glycerol (no MTP) served as buffer (negative) controls.

Solubility = assay type: physicochemical
Text: BU-4641V was isolated as a white amorphous powder. […] It gave positive responses to iodine vapor, sulfuric acid and ferric chloride tests, but negative responses to Rydon-Smith, Dragendorff and anthrone-sulfuric acid tests on silica gel TLC plate.

[5] = Cytotoxicity in CEM-SS cells; assay type: cell-based; details: human
[6] = Cytotoxicity in virus-uninfected MT-4 cells; assay type: cell-based; details: human; virus-uninfected MT-4 cells
[7] = system: tubulin bundling in human colon cells; test: Immunofluorescence study of tubulin bundling in human colon cells; assay type: cell-based
[8] = molecular target: T1, HIV envelope protein gp120 / T cells (UniProt P01730+P04578); test: Binding of HIV envelope protein gp120 to T cells
T1 construct: CD4 native on cells

tubulin (3XMTP) [9] = details: cited from earlier work

## Dextran sulfate [reference compound]
[1]
  Syncytium inhibitory activity ID50: 12.0 µg/mL
[2]
  EC50: 1.4 µg/mL
MT-4 cells
  CC50: > 1000 µg/mL

## CC1=CCC2(C)C(=O)C(O)=C(C(C)CO)C2CC=C(C)C(O)CCC(C)=CCC1 (stereo not drawn) [BU-4641V]
Tubulin (3XMTP) [3]
  microtubule assembly by electron microscopy (in words): confirmed by electron microscopic observation of microtubule assembly
[1]
  Syncytium inhibitory activity ID50: 0.46 µg/mL
[1]; compared with dextran sulfate
  syncytium inhibitory activity (in words): more potent syncytium inhibitory activity; also recorded: stronger syncytium inhibitory property than that of dextran sulfate
HIV-1 IIIb
  blocking of acute HIV-1 IIIb infection (in words): only partially blocks the acute infection of HIV-1 IIIb
HIV-1 IIIb; acute infection of HIV-1 IIIb
  IC50: 10 µM
Tubulin (3XMTP) [4]
  promotion of tubulin polymerization (in words): promotes tubulin polymerization in a dose dependent manner; also recorded: reversibly stimulates polymerization of purified tubulin protein; also recorded: promote tubulin polymerization
Tubulin (3XMTP) [4]; compared to taxol
  initial rate of tubulin polymerization (in words): slower initial rate
Tubulin (3XMTP) [4]; treatment with CaCl2
  reversal of tubulin polymerization by CaCl2 (in words): can be reversed by treatment with CaCl2
Solubility
  solubility: soluble in dimethyl sulfoxide, methanol, methylene chloride, ethyl acetate and alkaline water (such as 0.1 N NaOH); also recorded: insoluble in hexane and water
[2]
  EC50: 0.78 µg/mL (≈ 1.94 µM)
[2]; compared with dextran sulfate
  activity against HTLV-III (in words): more active than dextran sulfate against HTLV-III
[5]
  CC50: 84 µM
[6]
  CC50: 37.8 µg/mL (≈ 93.9 µM)
[7]
  tubulin bundling around nuclei (in words): induces tubulin bundling around nuclei
[8]
  binding of HIV envelope protein gp120 to T cells: does not affect the binding of HIV envelope protein gp120 to T cells

## Nc1nc2c(ncn2[C@@H]2O[C@H](COP(=O)(O)OP(=O)(O)OP(=O)(O)O)[C@@H](O)[C@H]2O)c(=O)[nH]1 [GTP]
Tubulin (3XMTP) [9]; GTP
  promotion of tubulin polymerization (in words), known: known to reversibly promote tubulin polymerization; also recorded: only active on tubulin in the presence of microtubule associated proteins (MAPS)

## CC(=O)O[C@H]1C(=O)[C@@]2(C)[C@H]([C@H](OC(=O)c3ccccc3)[C@]3(O)C[C@H](OC(=O)[C@H](O)[C@@H](NC(=O)c4ccccc4)c4ccccc4)C(C)=C1C3(C)C)[C@]1(OC(C)=O)CO[C@@H]1C[C@@H]2O [Taxol, reference compound]
Tubulin (3XMTP) [9]; taxol
  promotion of tubulin polymerization (in words), known: promote tubulin polymerization
[7]
  tubulin bundling around nuclei (in words): induces tubulin bundling around nuclei
